{
  "source": "patent US20140030808A1",
  "about": "“Method for Cellular RNA Expression” (BIONTECH AG, priority 2010, published 2014)",
  "format_in_all_cases": "cell-based",
  "key": {"[1]": {"test_system": "Primary human foreskin fibroblasts (BJ, CCD1079Sk, HFF)", "conditions": "for luciferase expression after transient treatment: BJ and CCD1079SK"}, "[2]": {"test_system": "murine embryonic fibroblasts (MEFs)", "assay": "Luciferase reporter gene assay in murine fibroblasts electroporated with IVT RNA", "conditions": "0.5 μM to 2 μM, mouse fibroblasts, after electroporation", "experimental": "(A-C) Primary human foreskin fibroblasts from different donors and suppliers (panel A: BJ fibroblasts; panel B CCD1079Sk; panel C: HFF) and (D) murine embryonic fibroblasts (MEFs) were electroporated with 0.5 μg IVT RNA encoding for firefly luciferase and 1.25 μg IVT RNA encoding for enhanced GFP (eGFP). The cells were plated in duplicates into 96-well-plates at a density of 30000 cells/well. The cells were either left untreated or incubated with increasing amounts of C13H8N4OS (PKR-inhibitor) ranging from 0.5 μM to 2 μM as indicated in the panel legends. Luciferase activity was measured at the indicated time points. Mean values of the duplicates are given.\nTransfer of IVT-RNA into cells was performed by electroporation (EP). To this end, 1-10×10^7 cells per EP were harvested, washed sequentially with PBS supplemented with 2 mM EDTA and X-VIVO 15 medium (Lonza), resuspended in 125 μl X-VIVO 15 medium and transferred to a 2-mm gap sterile electroporation cuvette (Bio-RAD, Hercules, Calif., USA). […]\nFor luciferase assays, cells electroporated with in vitro transcribed RNA coding for luciferase were plated in 96-well white flat-bottom microplates (Nunc, Langenselbold, Germany) and incubated at 37° C. […] Bioluminescence flux was measured with the Infinite M200 microplate luminescence reader (Tecan, Crailsheim, Germany) with 1 s integration time. […]"}, "[3]": {"test_system": "Primary human umbilical vein endothelial cells (HUVECs)"}},
  "note": "Like-named read-outs stand apart in the source and are kept apart here.",
  "data": [
    {"smiles": "O=C1Nc2ccc3ncsc3c2/C1=C/c1c[nH]cn1", "note": "[C13H8N4OS, 6,8-dihydro-8-(1H-imidazol-5-ylmethylene)-7H-pyrrolo[2,3-g]benzothiazol-7-one]", "values": [
      {"measurement": "luciferase expression", "setting": "[1]; 0.5 μM to 2 μM, human fibroblasts, after electroporation", "value": "dose dependent increase"},
      {"measurement": "luciferase expression on additional application of inhibitor", "setting": "[1]; 2 μM C13H8N4OS on CCD1079SK cotransfected with E3/K3, vs untreated controls", "value": "additive increase of luciferase expression and a stabilization"},
      {"measurement": "luciferase expression after transient treatment", "setting": "[1]; 2 μM, 7 h incubation period", "value": "did not results in a significant increase of luciferase expression"},
      {"measurement": "luciferase expression after transient treatment", "setting": "[1]; 2 μM, 24 h treatment", "value": "rapidly reversed after removal of the inhibitors"},
      {"measurement": "luciferase expression after transient treatment", "setting": "[1]; 2 μM, 48 h treatment", "value": "less efficient than a permanent treatment"},
      {"measurement": "luciferase expression from modified (5mC and PU) IVT RNA", "setting": "[1]; 2 μM, CCD1079Sk, 7 h to 72 h", "value": "further increases and stabilizes"},
      {"measurement": "luciferase expression from unmodified IVT-RNA", "setting": "[1]; 2 μM, CCD1079Sk, 7 h to 72 h", "value": "greatly enhanced and stabilized"},
      {"measurement": "duration of high luciferase expression levels", "setting": "[1]; 2 μM, permanent inhibition", "value": 5, "unit": "days"},
      {"measurement": "stabilization of luciferase expression", "setting": "[1]; highest concentration used (2 μM)", "value": "high level of stabilization"},
      {"measurement": "luciferase expression", "setting": "[2]", "value": "dose dependent increase"},
      {"measurement": "luciferase expression", "setting": "[3]; 0.5 μM to 2 μM, HUVECs", "value": "enhanced in HUVECs in a dose dependent manner"},
      {"measurement": "luciferase expression on additional application of inhibitor", "setting": "[3]; HUVECs cotransfected with E3 and K3, increasing concentrations of C13H8N4OS", "value": "additively enhanced"},
      {"measurement": "duration of luciferase expression compared with fibroblasts", "setting": "[3]; HUVECs, PKR inhibition", "value": "not as long lasting as observed in fibroblasts"}
    ]}
  ]
}
